Data on 1 substance can be found in patent US4912036A, “Rapid differentiation of bacteria using cyclic polypeptide antibiotics” (Eastman Kodak Company, priority 1986, dated 1990).

Where only a bound is given, the exact number is not on record here.

Test [1] relates to S. aureus. In words: RIND XXIX reduction solution assay, Δ fluorescence. The format is cell-based, Staphylococcus aureus. The settings on record: S. aureus (gram +) about 5×10^7 cells/ml, gramicidin S 0.1 mg/ml, 37° C. As for the experimental part: (§1) Bacterial suspensions were prepared by growing the cells in BHT broth to stationary phase overnight at 37° C. P. auruginosa was grown with agitation. About 40 ml of each overnight culture was centrifuged, decanted and washed once with 0.05 molar potassium phosphate buffer or 0.05 molar N-2-hydroxy-ethylpiperazine-N'-2-ethanesulfonic acid (HEPES) buffer, pH 7.8, and resuspended in buffer.
(§2) Dispersions containing RIND compounds were prepared by dissolving the RIND compound in N,N-dimethylformamide (DMF) at 16 mg compound per ml of solvent. An aliquot (250 μl) of the resulting solution was added to 500 μl of TRITON X-100 surfactant. This mixture was then added dropwise with stirring to 25 ml of 0.05 molar HEPES buffer. A dispersion of RIND XXIX was prepared similarly except that DMF was acidified with 0.1% sulfuric acid. […]
(§3) The solutions were incubated at 37° C. for 30 minutes, and the change in fluorescence emission (Δ fluorescence) was determined as the difference between the readings taken when the solutions were first mixed and then after 30 minutes incubation. Measurements were made in a commercially available MICROFLUOR Reader (available from Dynatech Laboratories, Alexandria, Virginia, U.S.A.), modified with an excitation filter at 540 nm, an emission filter at 620 nm and a Xenon lamp.

Test [2] relates to S. faecalis. Put plainly: RIND XXIX reduction solution assay, Δ fluorescence. The settings on record: S. faecalis (gram +) about 5×10^7 cells/ml, gramicidin S 0.1 mg/ml, 37° C. The format is cell-based, Streptococcus faecalis. As for the experimental part:
as §1, §2, §3

The subject of test [3] is P. aeruginosa. In words: DCIP reduction solution assay, ΔOD 620 nm. The following applies: P. aeruginosa (-) 5×10^7, gramicidin S 0.00625 mg/ml, 37° C. The format is cell-based, Pseudomonas aeruginosa. Here is the method: (§4) These examples illustrate the differentiation of bacteria using a tetrazolium salt and phenolic dye as the reducible compounds and two cyclic polypeptide antibiotics according to the present invention. The tetrazolium salt was 3-(4,5-dimethyl-2-thiazolyl) -2,5-diphenyl-2H-tetrazolium bromide (MTT) which forms a colored formazan dye when reduced. The phenolic dye was 2,6-dichloroindophenol (DCIP) which forms a colorless species when reduced.
(§5) Solutions of the reducible compounds were prepared with the following: HEPES buffer (3 ml, 0.05 molar, pH 7.5), TRITON X-100 nonionic surfactant (1% concentration), glucose (50 μl of 10% in water), tryptose (50 μl of a 10% solution in water), MTT (25 μl of 5 mg/ml methanol) or DCIP (25 μl of 3 mg/ml methanol) and phenazine methosultate ETA (25 μl of 3 mg/ml methanol).
(§6) Test solutions were prepared from the following: reducible compound solution from above (200 μl), 50 μl of either gramicidin S solution (6 mg/ml methanol and 9 ml of buffer) or tyrocidin solution (100 mg/ml methanol and 8 ml of buffer) and 50 μl of cell suspension. […] The change in optical density (ΔOD) was determined after 30 minutes at 37° C. at 540 nm for the MTT assay and at 620 nm for the DCIP assay using a commercially available spectrophotometer.

Test [4] relates to K. pneumoniae. Put plainly: DCIP reduction solution assay, ΔOD 620 nm. The format is cell-based, Klebsiella pneumoniae. The following applies: K. pneumoniae (-) 5×10^7, gramicidin S 0.00625 mg/ml, 37° C. As for the experimental part: as §4, §5, §6
The subject of test [5] is S. aureus. In words: MTT reduction solution assay, ΔOD 540 nm. The format is cell-based, Staphylococcus aureus. The settings on record: S. aureus (+) 5×10^7, gramicidin S 0.00625 mg/ml, 37° C. Here is the method:
as §4, §5, §6
In general terms: Tetrazolium assays rely on reduction of a dye to a coloured formazan, in cell work by metabolically active cells.

For test [6], the system named is S. aureus. In words: DCIP reduction solution assay, ΔOD 620 nm. The format is cell-based, Staphylococcus aureus. The settings on record: S. aureus (+) 5×10^7, gramicidin S 0.00625 mg/ml, 37° C. As for the experimental part: as §4, §5, §6
The test system of test [7] is E. coli. In words: RIND VII reduction solution assay, ΔOD 635 nm. The format is cell-based, Escherichia coli. The settings on record: E. coli 7 × 10^7 /ml, antibiotic 10^-4 molar. Here is the method:
as §1
TERGITOL 7 anionic surfactant was used to differentiate viable bacteria according to the prior art method. Various concentrations of TERGITOL 7 surfactant were mixed with a 10% glucose solution (50 μl), 3-(4,5-dimethyl-2-thiazolyl)-2,5-diphenyl-2N-tetrazolium bromide (MTT) (25 μl at 5 mg/ml methanol) or a RIND VII dispersion (1.5 ml) and phenazine methosulfate ETA (25 μl at 3 mg/ml methanol). The volume of each test solution was brought to 3 ml with potassium phosphate buffer. A cell suspension (100 μl at about 10^8 cells/ml) was then added. The solutions were incubated at 37° C. for 15 and 30 minutes in the presence of either E. coli, a gram(-) bacterium, or S. aureus, a gram(+) bacterium. The amount of dye formed was then determined visually, and graded as follows: "O" indicates no dye formation, +/- indicates faint dye formation, 1+ indicates light dye formation, 2+ indicates moderate dye formation, 3+ indicates strong dye formation, and 4+ indicates very strong dye formation. […]

Test [8] has as its system P. vulgaris. Put plainly: RIND XXIX reduction solution assay, Δ fluorescence. The format is cell-based, Proteus vulgaris. The settings on record: P. vulgaris (gram -) about 5×10^7 cells/ml, gramicidin S 0.1 mg/ml, 37° C. Here is the method: as §1
Dispersions containing RIND compounds were prepared by dissolving the RIND compound in N,N-dimethylformamide (DMF) at 16 mg compound per ml of solvent. An aliquot (250 μl) of the resulting solution was added to 500 μl of TRITON X-100 surfactant. This mixture was then added dropwise with stirring to 25 ml of 0.05 molar HEPES buffer. A dispersion of RIND XXIX was prepared similarly except that DMF was acidified with 0.1% sulfuric acid. Compositions containing water-compatible RIND compounds were prepared as described above except the surfactant was omitted.
Each test solution contained the following: dispersion of RIND XXIX (25 μl) prepared as described above, glucose (400 μl of 10% aqueous solution), tryptose (400 μl of 10% aqueous solution), trimethyl-1,4-benzoquinone ETA (500 μl of 1.5 mg/ml methanol). Aliquots (200 μl) of the mixture were mixed with solutions of the antibiotics (50 μl). The cell suspensions (50 μl) were then added. The final concentration of gramcidin S and tyrocidin were 0.1 mg/ml and 3.3 mg/ml, respectively. The final cell concentration was about 5×10^7 cells/ml. Cell control solutions contained all reagents except antibiotics. Background controls consisted of both buffer and solution controls. […]
The solutions were incubated at 37° C. for 30 minutes, and the change in fluorescence emission (Δ fluorescence) was determined as the difference between the readings taken when the solutions were first mixed and then after 30 minutes incubation. Measurements were made in a commercially available MICROFLUOR Reader (available from Dynatech Laboratories, Alexandria, Virginia, U.S.A.), modified with an excitation filter at 540 nm, an emission filter at 620 nm and a Xenon lamp. […]

The subject of test [9] is E. coli. In words: MTT reduction solution assay, ΔOD 540 nm. The settings on record: E. coli (-) 5×10^7, gramicidin S 0.00625 mg/ml, 37° C. The format is cell-based, Escherichia coli. Here is the method:
as §4, §5, §6

Test [10] relates to various bacteria which are found in the human urinary tract. Put plainly: Differentiation with RIND VII, overall result. The following applies: gramicidin S 10^-4 molar. The format is cell-based. Here is the method:
TERGITOL 7 anionic surfactant was used to differentiate viable bacteria according to the prior art method. Various concentrations of TERGITOL 7 surfactant were mixed with a 10% glucose solution (50 μl), 3-(4,5-dimethyl-2-thiazolyl)-2,5-diphenyl-2N-tetrazolium bromide (MTT) (25 μl at 5 mg/ml methanol) or a RIND VII dispersion (1.5 ml) and phenazine methosulfate ETA (25 μl at 3 mg/ml methanol). The volume of each test solution was brought to 3 ml with potassium phosphate buffer. A cell suspension (100 μl at about 10^8 cells/ml) was then added. The solutions were incubated at 37° C. for 15 and 30 minutes in the presence of either E. coli, a gram(-) bacterium, or S. aureus, a gram(+) bacterium. The amount of dye formed was then determined visually, and graded as follows: "O" indicates no dye formation, +/- indicates faint dye formation, 1+ indicates light dye formation, 2+ indicates moderate dye formation, 3+ indicates strong dye formation, and 4+ indicates very strong dye formation.
Gramicidin S, a cyclic polypeptide antibiotic, was similarly used with RIND VII in the differentiation of various bacteria which are found in the human urinary tract. Assays were performed as described above. The final concentration of gramicidin S in each test was 10^-4 molar. […] Dye measurements were made at 635 nm and expressed below as the change in optical density (ΔOD) which was corrected for background.

As to gramicidin S, the “Δ Fluorescence (30 Minutes)” value in [1] worked out at 0478; in [2], 0197; in [8], 3491. The “ΔOD, 620 nm after 30 Minutes” value in test [3] is recorded as 1.040; in [4], 1.062; in test [6], 0.096. Further, the “ΔOD, 540 nm after 30 Minutes” value was determined as 0.177 in [5] and 1.123 in test [9]. For the same substance, the “Corrected ΔOD (15 Minutes)” value in test [7] was above 2.0. In addition, the “inhibition of reduction of the RIND compound, in words” value in test [10] is “selectively inhibits the reduction of the RIND compound by viable gram-positive bacteria but not gram-negative bacteria”.
